Values joined by “and” are separate entries in the source; they are usually repeats but may differ in a detail not shown here. Equal entries are not always repeated.
Columns and labels:
Type in all cases: functional, Homo sapiens
U2OS [1] = experiment: (§1) Here: values are normalized to the negative (DMSO; defined as 0% autophagy induction) and positive (250nM Torin1; mTOR inhibitor; defined as maximal inducer of autophagy = 100%) control compounds and represented as % of autophagy induction. […] The impact of autophagy induction on cells is complex and depends on the affected target. As such, the magnitude of a phenotype may not be equally mirrored in the %-value of autophagy induction and vice versa. The dynamics of the induction may indicate the mode of activation: e.g. activation via phosphorylation or a signaling cascade may occur fast, while activation via transcription factors may take considerably longer. […] Of note, treatment concentrations may be sub-optimal for specific compounds, leading to false negative annotations.; conditions: Culturing Media DMEM, 1 % Penicillin/Streptomycin, 10% Fetal bovin serum Add-On: No, Screening Media Control DMEM, Screening Media Samples DMEM
U2OS [2] = experiment: as §1; conditions: Culturing Media DMEM, 1 % Penicillin/Streptomycin, 10% Fetal bovin serum Add-On: No, Screening Media Control DMEM, Screening Media Samples DMEM; remark: listed apart in the source
TERT-RPE1 = experiment: as §1; conditions: Culturing Media DMEM/F12 (1:1), 1 % Penicillin/Streptomycin, 10% Fetal bovin serum Add-On: No, Screening Media Control DMEM/F12 (1:1), Screening Media Samples DMEM/F12 (1:1)
[3] = Compound Concentration 0.5 uM, Timepoint 12 hours
[4] = Compound Concentration 0.5 uM, Timepoint 24 hours
[5] = Compound Concentration 0.5 uM, Timepoint 36 hours
[6] = Compound Concentration 0.5 uM, Timepoint 60 hours
[7] = Compound Concentration 2 uM, Timepoint 12 hours
[8] = Compound Concentration 2 uM, Timepoint 24 hours
[9] = Compound Concentration 2 uM, Timepoint 36 hours
[10] = Compound Concentration 2 uM, Timepoint 60 hours
[11] = Compound Concentration 10 uM, Timepoint 12 hours
[12] = Compound Concentration 10 uM, Timepoint 24 hours
[13] = Compound Concentration 10 uM, Timepoint 36 hours
[14] = Compound Concentration 10 uM, Timepoint 60 hours
[15] = Compound Concentration 0.5 uM, Timepoint 12 hours, 12 h, 0.5 µM
[16] = Compound Concentration 0.5 uM, Timepoint 24 hours, 24 h, 0.5 µM
[17] = Compound Concentration 0.5 uM, Timepoint 36 hours, 36 h, 0.5 µM
[18] = Compound Concentration 0.5 uM, Timepoint 60 hours, 60 h, 0.5 µM
[19] = Compound Concentration 2 uM, Timepoint 12 hours, 12 h, 2 µM
[20] = Compound Concentration 2 uM, Timepoint 24 hours, 24 h, 2 µM
[21] = Compound Concentration 2 uM, Timepoint 36 hours, 36 h, 2 µM
[22] = Compound Concentration 2 uM, Timepoint 60 hours, 60 h, 2 µM

SMILES | autophagy induction (U2OS [1]; [3]) | autophagy induction (U2OS [1]; [4]) | autophagy induction (U2OS [1]; [5]) | autophagy induction (U2OS [1]; [6]) | autophagy induction (U2OS [1]; [7]) | autophagy induction (U2OS [1]; [8]) | autophagy induction (U2OS [1]; [9]) | autophagy induction (U2OS [1]; [10]) | autophagy induction (U2OS [1]; [11]) | autophagy induction (U2OS [1]; [12]) | autophagy induction (U2OS [1]; [13]) | autophagy induction (U2OS [1]; [14]) | autophagy induction (U2OS [2]; [3]) | autophagy induction (U2OS [2]; [4]) | autophagy induction (U2OS [2]; [5]) | autophagy induction (U2OS [2]; [6]) | autophagy induction (U2OS [2]; [7]) | autophagy induction (U2OS [2]; [8]) | autophagy induction (U2OS [2]; [9]) | autophagy induction (U2OS [2]; [10]) | other results
Cl.Clc1ccc(CCCOCCCN2CCCCC2)cc1 [PITOLISANT HYDROCHLORIDE] | 13.8608% | 9.201% | 8.758% | 0.1501% | -8.536% | -1.42% | -3.922% | -5.605% | 1.329% | 3.348% | 1.993% | 3.566% | 15.5533% | 6.616% | -57.7817% | -0.2681% | -2.233% | -2.143% | -60.8013% | -1.476% | autophagy induction (U2OS [2]; [11]): 10.0351%; autophagy induction (U2OS [2]; [12]): 1.34%; autophagy induction (U2OS [2]; [13]): -57.6898%; autophagy induction (U2OS [2]; [14]): -1.026%; autophagy induction (TERT-RPE1; [15]): -3.0454% and 2.896%; autophagy induction (TERT-RPE1; [16]): -1.513% and 3.003%; autophagy induction (TERT-RPE1; [17]): -3.944% and 2.632%; autophagy induction (TERT-RPE1; [18]): -4.171% and 0.01183%; autophagy induction (TERT-RPE1; [19]): 0.8347% and 2.672%; autophagy induction (TERT-RPE1; [20]): 0.6662% and 3.448%; autophagy induction (TERT-RPE1; [21]): -1.283% and 2.753%; autophagy induction (TERT-RPE1; [22]): -3.185% and 1.301%; autophagy induction (TERT-RPE1; Compound Concentration 10 uM, Timepoint 36 hours, 36 h, 10 µM): -0.5799% and 21.0375%
c1cc(CN2CCCNCCNCCCNCC2)ccc1CN1CCCNCCNCCCNCC1 [PLERIXAFOR] | 9.361% | 4.086% | 3.942% | -10.4654% | -10.5746% | -17.2139% | -19.8311% | -28.2789% | -19.8514% | -21.1534% | -25.1466% | -33.2742% | 1.944% | -0.47% | 1403.21% | -0.2952% | -1.895% | -4.5042% | -61.4276% | -2.96% | autophagy induction (U2OS [2]; [11]): -9.041%; autophagy induction (U2OS [2]; [12]): -7.066%; autophagy induction (U2OS [2]; [13]): -62.672%; autophagy induction (U2OS [2]; [14]): -3.919%; autophagy induction (TERT-RPE1; [15]): -4.475% and 7.798%; autophagy induction (TERT-RPE1; [16]): -3.816% and 9.011%; autophagy induction (TERT-RPE1; [17]): -5.185% and 14.9232%; autophagy induction (TERT-RPE1; [18]): -8.266% and 14.0932%; autophagy induction (TERT-RPE1; [19]): -1.002% and 11.2768%; autophagy induction (TERT-RPE1; [20]): -1.015% and 15.5767%; autophagy induction (TERT-RPE1; [21]): -0.9806% and 19.0771%; autophagy induction (TERT-RPE1; [22]): -1.796% and 21.8048%; autophagy induction (TERT-RPE1; Compound Concentration 10 uM, Timepoint 12 hours, 12 h, 10 µM): -0.2124% and 10.1362%

— ChEMBL document CHEMBL5724696, “Autophagy assay results for EUbOPEN Chemogenomics Library” (2024)
